Measured values from patent publication US12180187B2, “1-phenyl-5-azinylpyrazolyl-3-oxyalkyl acids and their use for controlling unwanted plant growth” (BAYER AKTIENGESELLSCHAFT, priority 2019, dated 2024).

Legend:
ALOMY [1] = experiment: Post-emergence action against ALOMY, 1.28 kg/ha; assay type: in vivo, Alopecurus myosuroides; settings: dosage 1280 g/ha, visual rating about 3 weeks after treatment vs untreated controls
Procedure, shortened: (§1)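 Percent activity was scored visually ~3 wk post-spray relative to untreated plants. Treatment was post-emergence at the one-leaf stage using WP/EC in water with 0.5% additive (600 L/ha).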

DIGSA [2] = experiment: Post-emergence action against DIGSA, 1.28 kg/ha; assay type: in vivo, Digitaria sanguinalis; settings: dosage 1280 g/ha, visual rating about 3 weeks after treatment vs untreated controls
Procedure, shortened: as §1

SETVI [3] = experiment: Post-emergence action against SETVI, 1.28 kg/ha; assay type: in vivo, Setaria viridis; settings: dosage 1280 g/ha, visual rating about 3 weeks after treatment vs untreated controls
Procedure, shortened: as §1

ECHCG = experiment: Post-emergence action against ECHCG, 1.28 kg/ha; assay type: in vivo, Echinochloa crus-galli; settings: dosage 1280 g/ha, visual rating about 3 weeks after treatment vs untreated controls
Procedure, shortened: as §1

SETVI [4] = experiment: Post-emergence action at 320 g/ha against SETVI; assay type: in vivo, Setaria viridis; settings: visual rating about 3 weeks after treatment vs untreated controls
Procedure, shortened: (§2)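 Visual % activity vs untreated controls (0% = like control, 100% = plants dead), scored ~3 wk after treatment. Plants were grown in sandy loam in a greenhouse and sprayed on green parts at the one-leaf stage (2–3 wk post-sowing). Spray: WP or EC in water, 0.5% additive, 600 l/ha.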

VERPE [5] = experiment: Pre-emergence action at 320 g/ha against VERPE; assay type: in vivo, Veronica persica; settings: visual scoring after about 3 weeks vs untreated controls
Procedure, shortened: (§3)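 Visual % scoring at about 3 weeks post-treatment against untreated pots (0% = like control, 100% = dead), greenhouse-grown. Compounds applied at 320 g/ha as aqueous WP/EC suspension or emulsion plus 0.5% additive, 600 l/ha water, onto covering soil of freshly sown pots before emergence.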

ABUTH [6] = experiment: Pre-emergence action against ABUTH, 1280 g/ha; assay type: in vivo, Abutilon theophrasti; settings: scored visually after about 3 weeks vs untreated controls (100% = plants have died)
Procedure, shortened: (§4)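 Activity was scored visually as percent versus untreated controls about 3 weeks after treatment (100% = dead plants, 0% = control-like). Compounds, formulated as wettable powders or emulsion concentrates, were sprayed onto the covering soil over freshly sown seeds in sandy loam, with 0.5% additive and 600 L/ha water.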

MATIN = experiment: Post-emergence action against MATIN, 1.28 kg/ha; assay type: in vivo, Tripleurospermum inodorum (Matricaria inodora); settings: dosage 1280 g/ha, visual rating about 3 weeks after treatment vs untreated controls (100% = plants died)
Procedure, shortened: as §1

ALOMY [7] = experiment: Post-emergence action against ALOMY, 320 g/ha; assay type: in vivo, Alopecurus myosuroides; settings: dosage 320 g/ha, visual rating about 3 weeks after treatment vs untreated controls (100% = plants died)
Procedure, shortened: as §2

LOLRI [8] = experiment: Pre-emergence action against LOLRI, 1280 g/ha; assay type: in vivo, Lolium rigidum; settings: visual scoring after about 3 weeks vs untreated controls, 100% = plants have died, 0% = like control plants
Procedure, shortened: as §4

ABUTH [9] = experiment: Post-emergence action at 320 g/ha against ABUTH; assay type: in vivo, Abutilon theophrasti; settings: visual rating about 3 weeks after treatment vs untreated controls
Procedure, shortened: as §2

VIOTR = experiment: Post-emergence action at 320 g/ha against VIOTR; assay type: in vivo, Viola tricolor; settings: visual rating about 3 weeks after treatment vs untreated controls
Procedure, shortened: as §2

DIGSA [10] = experiment: Post-emergence action at 320 g/ha against DIGSA; assay type: in vivo, Digitaria sanguinalis; settings: dosage 320 g/ha, visual rating about 3 weeks after treatment vs untreated controls (100% = plants died)
Procedure, shortened: as §2

LOLRI [11] = experiment: Pre-emergence action at 320 g/ha against LOLRI; assay type: in vivo, Lolium rigidum; settings: visual scoring after about 3 weeks vs untreated controls
Procedure, shortened: as §3

VERPE [12] = experiment: Post-emergence action against VERPE, 1.28 kg/ha; assay type: in vivo, Veronica persica; settings: dosage 1280 g/ha, visual rating about 3 weeks after treatment vs untreated controls (100% = plants died)
Procedure, shortened: as §1

LOLRI [13] = experiment: Post-emergence action against LOLRI, 1.28 kg/ha; assay type: in vivo, Lolium rigidum; settings: dosage 1280 g/ha, visual rating about 3 weeks after treatment vs untreated controls
Procedure, shortened: as §1

COC(=O)CCOC(=O)COc1nn(-c2ccccc2F)c(-c2ccc(F)nc2)c1Br [VII-111]
Post-emergence action against ALOMY (ALOMY [1]): 100%
Post-emergence action against DIGSA (DIGSA [2]): 100%
Post-emergence action against SETVI (SETVI [3]): 100%
Post-emergence action against ECHCG (ECHCG): 100%
Post-emergence action against SETVI in % (SETVI [4]): 90%
Pre-emergence action against VERPE in % (VERPE [5]): 100%
Pre-emergence action against ABUTH (ABUTH [6]): 90%
Post-emergence action against MATIN (MATIN): 100%
Post-emergence action against ALOMY (ALOMY [7]): 100%
Pre-emergence action against LOLRI (LOLRI [8]): 100%
Post-emergence action against ABUTH in % (ABUTH [9]): 80%
Post-emergence action against VIOTR in % (VIOTR): 90%
Post-emergence action at 320 g/ha against DIGSA in % (DIGSA [10]): 90%
Pre-emergence action against LOLRI in % (LOLRI [11]): 100%
Post-emergence action against VERPE (VERPE [12]): 90%
Post-emergence action against LOLRI (LOLRI [13]): 90%
